The source made the active and inactive calls. The calls are words filed in the database; no cut-off is given here.
Columns and labels:
HUVEC [1] = assay: Induction of SIRT1 mRNA expression in HUVEC by quantitative RT-PCR analysis; assay type: functional, cell-based; settings: Homo sapiens
HUVEC [2] = assay: Induction of SIRT1 mRNA expression in HUVEC after 24 hrs by luciferase reporter gene assay relative to untreated control; assay type: functional, cell-based; settings: Homo sapiens
HUVEC [3] = assay: Cytotoxicity against HUVEC assessed as cell viability at 5 to 300 uM after 24 hrs by MTT assay; assay type: cell-based; settings: human
Forkhead box protein O3 [4] = molecular target: T1, Forkhead box protein O3 (Homo sapiens, UniProt O43524); assay: Induction of FOXO3a binding to SIRT1 in HUVEC at 50 uM after 24 hrs by chromatin immunoprecipitation assay
T1 sequence (O43524 whole entry): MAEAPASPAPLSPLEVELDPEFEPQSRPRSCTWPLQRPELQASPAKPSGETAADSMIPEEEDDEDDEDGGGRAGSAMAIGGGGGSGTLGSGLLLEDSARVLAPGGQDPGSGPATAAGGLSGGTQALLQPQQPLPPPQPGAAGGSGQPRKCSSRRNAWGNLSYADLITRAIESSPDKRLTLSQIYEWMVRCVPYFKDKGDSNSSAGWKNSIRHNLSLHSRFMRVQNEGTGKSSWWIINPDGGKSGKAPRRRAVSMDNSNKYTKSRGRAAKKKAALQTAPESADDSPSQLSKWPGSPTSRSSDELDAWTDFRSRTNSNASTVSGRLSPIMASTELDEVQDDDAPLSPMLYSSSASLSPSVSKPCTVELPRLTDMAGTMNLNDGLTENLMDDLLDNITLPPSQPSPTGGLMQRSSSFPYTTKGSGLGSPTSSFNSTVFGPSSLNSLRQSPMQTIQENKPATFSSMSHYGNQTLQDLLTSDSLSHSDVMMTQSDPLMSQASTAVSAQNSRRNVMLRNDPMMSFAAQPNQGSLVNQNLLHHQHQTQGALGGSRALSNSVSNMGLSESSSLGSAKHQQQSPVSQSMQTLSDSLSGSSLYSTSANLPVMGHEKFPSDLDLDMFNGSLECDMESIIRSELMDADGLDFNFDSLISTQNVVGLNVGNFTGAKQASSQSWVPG

Forkhead box protein O3 [5] = molecular target: T1, Forkhead box protein O3; assay: Binding affinity to His-tagged FOXO3a (unknown origin) by SPR analysis
HUVEC [6] = assay: Induction of SIRT1 mRNA expression in HUVEC at 5 to 100 uM by quantitative RT-PCR analysis; assay type: functional, cell-based; settings: Homo sapiens
HUVEC [7] = assay: Induction of SIRT1 mRNA expression in HUVEC at 5 to 100 uM after 24 hrs by luciferase reporter gene assay relative to untreated control; assay type: functional, cell-based; settings: Homo sapiens

Structure (SMILES) | Activity (HUVEC [1]) | Activity (HUVEC [2]) | Activity (HUVEC [3]) | Activity (Forkhead box protein O3 [4]) | Kd (Forkhead box protein O3 [5]) [mM] | Activity (HUVEC [6]) | Activity (HUVEC [7]) | Activity (Forkhead box protein O3 [5])
COc1cc([C@H]2OC[C@H]3[C@@H]2CO[C@@H]3c2cc(OC)c(O)c(OC)c2)cc(OC)c1O [SYRINGARESINOL] | Dose-dependent effect | Dose-dependent effect | Non-toxic | Active | 1.73 | – | – | –
COc1cc([C@@H]2OC[C@@H]3[C@H]2CO[C@H]3c2cc(OC)c(O)c(OC)c2)cc(OC)c1O | – | – | Non-toxic | inactive | – | inactive | inactive | inactive
